Results taken from patent US11738008B2, “N-methyl-D-aspartic acid receptor modulators” (Emory University, priority 2018, dated 2023).
Values after ≈ are worked out from the molar mass of the structure shown. Where two headings read alike, the source gives them in different places.

Legend:
[1] = biological target: T1, 5-HT3A (Homo sapiens, UniProt P46098); test: Off-target two-electrode voltage clamp assay, 5-HT3A; type: cell-based; settings: 10 μM, mean ± SEM
T1 construct: expressed in transfected cells
Experimental: (§1) The NIMH PDSP is Directed by Bryan L. Roth at the University of North Carolina at Chapel Hill and Project Officer Jamie Driscoll at NIMH, Bethesda Md., USA. Radioligand binding was measured in the presence of 10 μM 1180-420 and 1180-447. […] For experimental details please refer to the PDSP web site https://pdsp.unc.edu/ims/investigator/web/. Both 1180-420 and 1180-447 were also tested at AMPA, nicotinic acetylcholine, serotonin, GABA, and glycine ion channels using a two-electrode voltage clamp assay.

[2] = nephelometer, oocyte recording solution
[3] = biological target: μ-opioid receptor (Homo sapiens, UniProt P35372); test: NIMH PDSP radioligand binding, μ-opioid receptor; settings: read-out: Radioligand binding in 10 μM compound (% control)
Experimental: as §1
Receptor binding profiles of compound 1180-447 were generously provided by the National Institute of Mental Health's Psychoactive Drug Screening Program, Contract # HHSN-271-2013-00017-C(NIMH PDSP). The NIMH PDSP is directed by Bryan L. Roth at the University of North Carolina at Chapel Hill and Project Officer Jamie Driscoll at NIMH, Bethesda Md., USA. Radioligand binding was measured in the presence of 10 μM 1180-447. […] For experimental details please refer to the PDSP web site https://pdsp.unc.edu/ims/investigator/web/.
The NIMH PDSP is Directed by Bryan L. Roth at the University of North Carolina at Chapel Hill and Project Officer Jamie Driscoll at NIMH, Bethesda Md., USA. Radioligand binding was measured in the presence of 10 μM 1180-420. […] For experimental details please refer to the PDSP web site https://pdsp.unc.edu/ims/investigator/web/.

[4] = In vivo pharmacokinetics, plasma and brain, IP 10 mg/kg; parameters: species or system C57BL/6 mice; settings: mouse; for AUC % Extrapolation / AUCINF / AUCLAST / t½terminal / Tmax / Cmax / AUC(0-inf) / AUC(0-t): mean; for max brain concentration / half-life: IP 10 mg/kg; for Kp / half-life / Tmax / Cmax / AUC(0-inf) / AUC(0-t): male; for Kp: C57BL/6, brain and plasma, IP 10 mg/kg fed, read-out: Ratio_AUCLAST (Brain/plasma); for half-life: C57BL/6, plasma, read-out: half-lives in plasma; for Tmax / Cmax / AUC(0-inf) / AUC(0-t): C57BL/6
Experimental: In vivo analysis of 1180-420 and 1180-447 for pharmacokinetic properties: In vivo analysis of 1180-420 and 1180-447 for pharmacokinetic properties was performed by Pharmaron (Irvine, Calif.). […] The mouse is placed head down at a 45-degree angle to facilitate blood removal. After perfusion, the brain ventricle is opened, and the brain is removed. […] The mixtures were then vortexed for 30 seconds and subsequently centrifuged (˜4000 rpm) for 15 minutes.

[5] = biological target: T2, α1-Glycine (Homo sapiens, UniProt P23415); test: Off-target two-electrode voltage clamp assay, α1-Glycine; type: cell-based; settings: 10 μM, mean ± SEM
T2 construct: expressed in transfected cells
Experimental: as §1

[6] = Brain IP 10 mg/kg fed, read-out: Cmax
[7] = Brain IP 10 mg/kg fed, read-out: Cmax (ng/g)
[8] = Plasma IP 10 mg/kg fed, read-out: Cmax
[9] = Plasma IP 10 mg/kg fed, read-out: Cmax (ng/mL)

Chain of μ-opioid receptor (P35372 whole entry, species assumed): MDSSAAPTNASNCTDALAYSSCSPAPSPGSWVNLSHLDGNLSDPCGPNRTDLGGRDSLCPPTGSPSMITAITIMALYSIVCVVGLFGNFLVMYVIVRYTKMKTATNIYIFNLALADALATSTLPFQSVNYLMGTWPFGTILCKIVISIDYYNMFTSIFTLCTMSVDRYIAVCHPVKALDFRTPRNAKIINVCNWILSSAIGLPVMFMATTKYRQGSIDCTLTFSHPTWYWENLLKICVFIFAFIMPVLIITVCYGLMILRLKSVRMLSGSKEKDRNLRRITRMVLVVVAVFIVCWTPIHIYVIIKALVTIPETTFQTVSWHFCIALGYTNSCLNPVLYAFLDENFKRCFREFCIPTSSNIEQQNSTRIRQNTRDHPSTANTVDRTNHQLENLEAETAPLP
T2 sequence (P23415 29-457): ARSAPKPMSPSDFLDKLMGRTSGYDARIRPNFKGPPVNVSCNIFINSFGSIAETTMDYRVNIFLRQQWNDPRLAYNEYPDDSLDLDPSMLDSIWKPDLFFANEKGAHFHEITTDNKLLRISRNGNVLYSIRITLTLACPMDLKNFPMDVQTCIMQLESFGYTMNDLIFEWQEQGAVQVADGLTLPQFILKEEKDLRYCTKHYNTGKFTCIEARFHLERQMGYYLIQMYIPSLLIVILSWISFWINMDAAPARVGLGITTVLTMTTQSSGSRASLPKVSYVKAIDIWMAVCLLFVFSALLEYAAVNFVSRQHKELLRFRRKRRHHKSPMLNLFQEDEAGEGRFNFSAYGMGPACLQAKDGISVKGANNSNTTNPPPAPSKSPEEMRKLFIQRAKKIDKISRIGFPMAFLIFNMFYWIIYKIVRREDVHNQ
T1 sequence (P46098 24-478, species assumed): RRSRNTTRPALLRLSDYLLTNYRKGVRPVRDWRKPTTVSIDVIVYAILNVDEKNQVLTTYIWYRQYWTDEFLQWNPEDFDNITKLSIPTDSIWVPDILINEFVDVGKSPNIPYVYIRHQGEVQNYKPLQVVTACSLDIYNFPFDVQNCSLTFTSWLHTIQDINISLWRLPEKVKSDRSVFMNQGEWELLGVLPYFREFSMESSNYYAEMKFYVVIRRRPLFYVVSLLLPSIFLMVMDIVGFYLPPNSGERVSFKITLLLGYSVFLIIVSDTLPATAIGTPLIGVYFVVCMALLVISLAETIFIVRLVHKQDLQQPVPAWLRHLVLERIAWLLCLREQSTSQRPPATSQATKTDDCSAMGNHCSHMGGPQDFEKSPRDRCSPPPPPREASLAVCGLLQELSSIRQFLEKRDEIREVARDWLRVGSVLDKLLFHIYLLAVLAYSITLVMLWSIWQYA

| SMILES | remaining activity at 10 µM [3] [%] | AUC % Extrapolation ([4]; Brain IP 10 mg/kg fed) [%] | AUCINF ([4]; Brain IP 10 mg/kg fed) [ng·h/g] | AUCLAST ([4]; Brain IP 10 mg/kg fed) [ng·h/g] | t½terminal ([4]; Brain IP 10 mg/kg fed) [min] | max brain concentration [4] [µM] | AUC % Extrapolation ([4]; Plasma IP 10 mg/kg fed) [%] | t½terminal ([4]; Plasma IP 10 mg/kg fed) [min] | Kp [4] | half-life [4] [min] | Tmax ([4]; Brain IP 10 mg/kg fed) [min] | Cmax [4, 6] [nM] | Cmax [4, 7] [ng/g] | AUC(0-inf) ([4]; Plasma IP 10 mg/kg fed) [ng·h/mL] | AUC(0-t) ([4]; Plasma IP 10 mg/kg fed) [ng·h/mL] | Tmax ([4]; Plasma IP 10 mg/kg fed) [min] | Cmax [4, 8] [nM] | Cmax [4, 9] [ng/mL] | further results |
| --- | --- | --- | --- | --- | --- | --- | --- | --- | --- | --- | --- | --- | --- | --- | --- | --- | --- | --- | --- |
| COc1ccc(OCC2c3cccn3CC(=O)N2Cc2cccc(C(F)(F)F)c2)cc1 (racemic) [1180-447, 1-((4-Methoxyphenoxy)methyl)-2-(3-(trifluoromethyl)benzyl)-1,2-dihydropyrrolo[1,2-a]pyrazin-3(4H)-one] | 99 | 9 | 1836 | 1670 | 72 | 4 | 6 | 60 | 2 | > 60 | 30 | 3900 | 1670 | 760 | 715 | 18 | 1500 | 635 | % control response [1]: 98.1 ± 10.4 % control response; Solubility [2]: 57 µM (≈ 24.5 µg/mL) |
| COc1ccc(OCC2c3cccn3CCN2C(=O)c2cccc(Cl)c2)cc1 (stereo not drawn) [1180-420, (3-Chlorophenyl)(1-((4-methoxyphenoxy)methyl)-3,4-dihydropyrrolo[1,2-a]pyrazin-2(1H)-yl)methanone] | 104 | 7 | 1413 | 1315 | 66 | 4 | 8 | 66 | 2 | > 60 | 18 | 3500 | 1410 | 856 | 792 | 18 | 2100 | 841 | % control response [5]: 77.6 ± 4.9 % control response |
